From US20040248879A1, “Salts of tricyclic inhibitors of poly(ADP-ribose) polymerases” (Agouron Pharmaceuticals, Inc., priority 2003, published 2004)
Values after ≈ are worked out from the molar mass of the structure shown.

How the values were obtained:
[1] = Water Solubility Assay; assay type: physicochemical; conditions: Milli Q water, room temperature, stirred 3 hours, HPLC; for solubility at 3 h: water, thermodynamic from solid
Description: The sample suspension was stirred at room temperature for 3 hours. The suspension was transferred into an eppendorf vial and centrifuged at 14000 rpm for 8 minutes. The supernant solution was then assayed by HPLC.
The suspension was stirred at room temperature for 3 hours and then centrifuged at 14000/min for 8 minutes. The supernant was diluted 10 times by Milli Q water. The final solution was then assayed by HPLC.
Accurately weigh out 2.5-3.0 mg of AG014447 reference standard into 10 ml volumetric flask, and then bring to volume with MeOH. Mix thoroughly.
Buffer: 25 mM ammonium phosphate buffer (pH 2.5)
Organic Modifier: Acetonitrile (ACN)
Column: Waters Symmetry C18, 4.6×150 mm, 5 μm;
The solubility of the sample is calculated by the equation below: […]
Where A is the peak area of the sample; As is the peak area of the standard; Cs is the concentration of the standard solution; D is the dilution factor. [drawing 2]

[2] = system: A549 cells; assay: Cytotoxicity Potentiation Assay; assay type: cell-based; conditions: test compound 0.4 μm, with topotecan, ratio of IC50 of topotecan alone to IC50 in combination
Description: Cytotoxicity Potentiation Assay: A549 cells (ATCC, Rockville, Md.) were seeded into 96-well cell culture plates (Falcon brand, Fisher Scientific, Pittsburgh, Pa.) 16 to 24 hours before experimental manipulation. Cells were then treated with a test compound (or a combination of test compounds where indicated) for either 3 days or 5 days, at a concentration of 0.4 μm. At the end of treatments, relative cell number was determined either by MTT assay or SRB assay. For the MTT assay, 0.2 μg/μl of MTT (3-(4,5-dimethylthiazol-2-yl)-2,5-diphenyltetrazolium bromide, Sigma Chemical Co., St. Louis, Mo.) was added to each well of a plate, and the plate was incubated in a cell-culture incubator for 4 hours. Metabolized MTT in each well was solubilized in 150 μl of DMSO (Sigma Chemical Co.) with shaking and quantified with a Wallac 1420 Victor plate reader (EG&G Wallac, Gaithersburg, Md.) at 540 nm. For the SRB assay, cells were fixed with 10% trichloroacetic acid (Sigma Chemical Co) for an hour at 4° C. […] The bound dye was measured photometrically with the Wallac Victor plate reader at 515 nm. The ratio of the OD (optical density) value of a compound-treated culture to the OD value of a mock-treated culture, expressed in percentage, was used to quantify the cytotoxicity of a compound. […] For the compounds of the invention, PF50 values were determined by testing with topotecan.

Structure (SMILES) | Solubility [1] [mg/mL] | solubility at 3 h [1] [µg/mL] | other results
CNCc1ccc(-c2[nH]c3cc(F)cc4c3c2CCNC4=O)cc1 [Phosphate, 8-Fluoro-2-(4-methylaminomethyl-phenyl)-1,3,4,5-tetrahydro-azepino[5,4,3-cd]indol-6-one Phosphate] |  |  | Solubility ([1]; Phosphate): 2.8 mg/mL
CNCc1ccc(-c2[nH]c3cc(F)cc4c3c2CCNC4=O)cc1 [Glucuronate, 8-Fluoro-2-(4-methylaminomethyl-phenyl)-1,3,4,5-tetrahydro-azepino[5,4,3-cd]indol-6-one Glucuronate] | 89 (≈ 275 mM) |  | 
CC(=O)O.CNCc1ccc(-c2[nH]c3cc(F)cc4c3c2CCNC4=O)cc1 [Acetate, 8-fluoro-2-(4-methylaminomethyl-phenyl)-1,3,4,5-tetrahydro-azepino[5,4,3-cd]indol-6-one Acetate] |  | 8800 | 
CNCc1ccc(-c2[nH]c3cc(F)cc4c3c2CCNC4=O)cc1 [Free base, 8-fluoro-2-(4-methylaminomethyl-phenyl)-1,3,4,5-tetrahydro-azepino[5,4,3-cd]indol-6-one] | 0.18 (≈ 0.557 mM) |  | Cytotoxicity Potentiation PF50 [2]: 2.4
CNCc1ccc(-c2[nH]c3cc(F)cc4c3c2CCNC4=O)cc1.CS(=O)(=O)O [Mesylate, 8-Fluoro-2-(4-methylaminomethyl-phenyl)-1,3,4,5-tetrahydro-azepino[5,4,3-cd]indol-6-one Mesylate] |  | 15500 | 
CNCc1ccc(-c2[nH]c3cc(F)cc4c3c2CCNC4=O)cc1 [Gluconate, 8-Fluoro-2-(4-methylaminomethyl-phenyl)-1,3,4,5-tetrahydro-azepino[5,4,3-cd]indol-6-one Gluconate] | >128 |  | 
CNCc1ccc(-c2[nH]c3cc(F)cc4c3c2CCNC4=O)cc1.O=C(O)C(O)C(O)C(=O)O [Tartrate, 8-Fluoro-2-(4-methylaminomethyl-phenyl)-1,3,4,5-tetrahydro-azepino[5,4,3-cd]indol-6-one Tartrate] |  | 1100 | 
CNCc1ccc(-c2[nH]c3cc(F)cc4c3c2CCNC4=O)cc1.Cl [Hydrochloride, 8-Fluoro-2-(4-methylaminomethyl-phenyl)-1,3,4,5-tetrahydro-azepino[5,4,3-cd]indol-6-one Hydrochloride] |  | 1600 | 
